These molecules were tested against T1, purified ITK (Invitrogen PV3875) (Homo sapiens, UniProt Q08881) (assay: ITK peptide phosphorylation assay (Caliper LabChip or LCMS)). Details: Table 2, Examples 1-140, class symbols.
T1 construct: purchased Invitrogen PV3875
T1 sequence (Q08881 1-620): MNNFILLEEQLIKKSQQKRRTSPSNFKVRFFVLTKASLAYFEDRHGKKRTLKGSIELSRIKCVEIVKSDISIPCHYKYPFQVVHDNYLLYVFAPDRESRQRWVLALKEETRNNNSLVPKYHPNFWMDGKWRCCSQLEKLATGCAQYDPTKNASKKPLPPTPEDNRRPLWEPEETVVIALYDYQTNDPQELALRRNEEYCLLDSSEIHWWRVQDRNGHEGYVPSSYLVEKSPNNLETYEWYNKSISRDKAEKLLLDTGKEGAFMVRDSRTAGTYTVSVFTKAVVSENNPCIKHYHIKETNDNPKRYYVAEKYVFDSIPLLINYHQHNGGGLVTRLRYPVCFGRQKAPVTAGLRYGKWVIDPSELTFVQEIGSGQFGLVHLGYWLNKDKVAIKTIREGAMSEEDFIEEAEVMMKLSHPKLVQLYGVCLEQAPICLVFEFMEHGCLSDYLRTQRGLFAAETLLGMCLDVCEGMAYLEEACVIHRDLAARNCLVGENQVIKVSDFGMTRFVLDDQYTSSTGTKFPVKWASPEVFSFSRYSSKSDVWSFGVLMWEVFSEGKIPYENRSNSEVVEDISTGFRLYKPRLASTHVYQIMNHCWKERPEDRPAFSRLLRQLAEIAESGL
Format: biochemical
Method: The ability of purified ITK (Invitrogen PV3875) to catalyze peptide phosphorylation is monitored using a Caliper LabChip 3000 microfluidic unit (Caliper assay) or by liquid chromatography-mass spectrometry (LCMS) using a Waters Acquity system (LCMS assay). […] Reactions are quenched by the addition of 2,2′,2″,2′″-(ethane-1,2-diyldinitrilo)tetraacetic acid (50 mM final). Non-phosphorylated substrate and phosphorylated product peptides are separated and quantified using a Caliper LabChip 3000 instrument. […] Reactions are quenched by the addition of trichloroacetic acid (5% v/v final). Non-phosphorylated substrate and phosphorylated product peptides are separated by ultra performance LC and detected by a coupled triple quadrupole MS device applying multiple reaction monitoring (MRM) for quantification. The area of the MRM-extracted mass signal is used to assess the inhibition by test compounds. Equilibrium dissociation constant (Ki) values for ITK inhibitors are calculated from plots of activity vs. inhibitor concentration using Morrison's quadratic equation that accounts for the potential of tight binding, and by also applying the conversion factor that accounts for competitive inhibition and the concentration of ATP used in the assay relative to its apparent Michaelis constant (Km,app).

Row | Structure (SMILES) | Ki
1 | COc1cccc(Cn2cc(NC(=O)c3n[nH]c4ccccc34)cn2)c1 [Example 67, N-(1-(3-methoxybenzyl)-1H-pyrazol-4-yl)-1H-indazole-3-carboxamide] | 1 to 100 nM
2 | O=C(Nc1cnn(Cc2ccc(F)c(F)c2)c1)c1n[nH]c2ccccc12 [Example 68, N-(1-(3,4-difluorobenzyl)-1H-pyrazol-4-yl)-1H-indazole-3-carboxamide] | 1 to 100 nM
3 | O=C(Nc1cnn(Cc2cc(F)ccc2F)c1)c1n[nH]c2ccccc12 [Example 69, N-(1-(2,5-difluorobenzyl)-1H-pyrazol-4-yl)-1H-indazole-3-carboxamide] | 1 to 100 nM
4 | COc1cc(Cn2cc(NC(=O)c3n[nH]c4ccccc34)cn2)cc(OC)c1 [Example 70, N-(1-(3,5-dimethoxybenzyl)-1H-pyrazol-4-yl)-1H-indazole-3-carboxamide] | 1 to 100 nM
5 | O=C(Nc1cnn(Cc2ccc(F)cc2F)c1)c1n[nH]c2ccccc12 [Example 71, N-(1-(2,4-difluorobenzyl)-1H-pyrazol-4-yl)-1H-indazole-3-carboxamide] | 1 to 100 nM
6 | O=C(Nc1cnn(Cc2ccc(OC(F)(F)F)cc2)c1)c1n[nH]c2ccccc12 [Example 72, N-(1-(4-(trifluoromethoxy)benzyl)-1H-pyrazol-4-yl)-1H-indazole-3-carboxamide] | > 100 nM
7 | O=C(Nc1cnn(Cc2ccc(Cl)cc2Cl)c1)c1n[nH]c2ccccc12 [Example 73, N-(1-(2,4-dichlorobenzyl)-1H-pyrazol-4-yl)-1H-indazole-3-carboxamide] | > 100 nM
8 | O=C(Nc1cnn(CCCN2CCCC(O)C2)c1)c1n[nH]c2ccccc12 (centres unmarked) [Example 74, N-(1-(3-(3-Hydroxypiperidin-1-yl)propyl)-1H-pyrazol-4-yl)-1H-indazole-3-carboxamide] | > 100 nM
9 | O=C(Nc1cnn(CCN2CCCC(O)C2)c1)c1n[nH]c2ccccc12 (centres unmarked) [Example 75, N-(1-(2-(3-Hydroxypiperidin-1-yl)ethyl)-1H-pyrazol-4-yl)-1H-indazole-3-carboxamide] | > 100 nM
10 | O=C(Nc1cnn(CCCCN2CCCC(O)C2)c1)c1n[nH]c2ccccc12 (centres unmarked) [Example 76, N-(1-(4-(3-Hydroxypiperidin-1-yl)butyl)-1H-pyrazol-4-yl)-1H-indazole-3-carboxamide] | > 100 nM
11 | CC(C)(c1cccc(C#N)c1)n1cc(NC(=O)c2n[nH]c3ccccc23)cn1 [Example 77, N-(1-(2-(3-Cyanophenyl)propan-2-yl)-1H-pyrazol-4-yl)-1H-indazole-3-carboxamide] | > 100 nM
12 | N#Cc1cccc(Cn2cc(NC(=O)c3n[nH]c4ccc(-c5ccccc5)cc34)cn2)c1 [Example 79, N-(1-(3-Cyanobenzyl)-1H-pyrazol-4-yl)-5-phenyl-1H-indazole-3-carboxamide] | > 100 nM
13 | N#Cc1cccc(Cn2cc(NC(=O)c3n[nH]c4ccc(-c5cc[nH]n5)cc34)cn2)c1 [Example 80, N-(1-(3-Cyanobenzyl)-1H-pyrazol-4-yl)-5-(1H-pyrazol-3-yl)-1H-indazole-3-carboxamide] | 1 to 100 nM
14 | N#Cc1cccc(Cn2cc(NC(=O)c3n[nH]c4ccc(-c5cn[nH]c5)cc34)cn2)c1 [Example 81, N-(1-(3-Cyanobenzyl)-1H-pyrazol-4-yl)-5-(1H-pyrazol-4-yl)-1H-indazole-3-carboxamide] | 1 to 100 nM
15 | N#Cc1cccc(Cn2cc(NC(=O)c3n[nH]c4ccc(CCO)cc34)cn2)c1 [Example 82] | 1 to 100 nM
16 | CCn1cc(NC(=O)c2n[nH]c3cc(-c4cn[nH]c4)ccc23)cn1 [Example 83, N-(1-ethyl-1H-pyrazol-4-yl)-6-(1H-pyrazol-4-yl)-1H-indazole-3-carboxamide] | 1 to 100 nM
17 | N#Cc1cncc(-c2ccc3c(C(=O)Nc4cnn(Cc5ccccc5)c4)n[nH]c3c2)c1 [Example 84, N-(1-benzyl-1H-pyrazol-4-yl)-6-(5-cyanopyridin-3-yl)-1H-indazole-3-carboxamide] | 1 to 100 nM
18 | COc1cncc(-c2ccc3c(C(=O)Nc4cnn(Cc5ccccc5)c4)n[nH]c3c2)c1 [Example 85, N-(1-benzyl-1H-pyrazol-4-yl)-6-(5-methoxypyridin-3-yl)-1H-indazole-3-carboxamide] | 1 to 100 nM
19 | N#Cc1cccc(Cn2cc(NC(=O)c3n[nH]c4cc(N5CCCC5)ccc34)cn2)c1 [Example 86, N-(1-(3-cyanobenzyl)-1H-pyrazol-4-yl)-6-(pyrrolidin-1-yl)-1H-indazole-3-carboxamide] | 1 to 100 nM
20 | Cn1cnc(-c2ccc3c(C(=O)Nc4cnn(Cc5ccccc5)c4)n[nH]c3c2)c1 [Example 87, N-(1-benzyl-1H-pyrazol-4-yl)-6-(1-methyl-1H-imidazol-4-yl)-1H-indazole-3-carboxamide] | 1 to 100 nM

More lines, now with the values ahead:

Row | Ki | Structure (SMILES)
21 | 1 to 100 nM | N#Cc1cccc(Cn2cc(NC(=O)c3n[nH]c4cc(N5CCC(O)C5)ccc34)cn2)c1 (centres unmarked) [Example 88, N-(1-(3-cyanobenzyl)-1H-pyrazol-4-yl)-6-(3-hydroxypyrrolidin-1-yl)-1H-indazole-3-carboxamide]
22 | 1 to 100 nM | CC(C)(O)CNCc1cccc(Cn2cc(NC(=O)c3n[nH]c4ccccc34)cn2)c1 [Example 90, N-(1-(3-((2-hydroxy-2-methylpropylamino)methyl)benzyl)-1H-pyrazol-4-yl)-1H-indazole-3-carboxamide]
23 | 1 to 100 nM | O=C(Nc1cnn(Cc2cccc(CN3CCC3)c2)c1)c1n[nH]c2ccccc12 [Example 91, N-(1-(3-(azetidin-1-ylmethyl)benzyl)-1H-pyrazol-4-yl)-1H-indazole-3-carboxamide]
24 | 1 to 100 nM | O=C(Nc1cnn(Cc2cccc(CNCC(F)F)c2)c1)c1n[nH]c2ccccc12 [Example 92, N-(1-(3-((2,2-difluoroethylamino)methyl)benzyl)-1H-pyrazol-4-yl)-1H-indazole-3-carboxamide]
25 | 1 to 100 nM | CC(O)CNCc1cccc(Cn2cc(NC(=O)c3n[nH]c4ccccc34)cn2)c1 (centres unmarked) [Example 93, N-(1-(3-((2-hydroxypropylamino)methyl)benzyl)-1H-pyrazol-4-yl)-1H-indazole-3-carboxamide]
26 | 1 to 100 nM | O=C(Nc1cnn(Cc2cccc(CNC3CCC3)c2)c1)c1n[nH]c2ccccc12 [Example 94, N-(1-(3-((cyclobutylamino)methyl)benzyl)-1H-pyrazol-4-yl)-1H-indazole-3-carboxamide]
27 | 1 to 100 nM | O=C(Nc1cnn(Cc2cccc(CNCC3CC3)c2)c1)c1n[nH]c2ccccc12 [Example 95, N-(1-(3-((cyclopropylmethylamino)methyl)benzyl)-1H-pyrazol-4-yl)-1H-indazole-3-carboxamide]
28 | 1 to 100 nM | O=C(Nc1cnn(Cc2cccc(CNCCO)c2)c1)c1n[nH]c2ccccc12 [Example 96, N-(1-(3-((2-hydroxyethylamino)methyl)benzyl)-1H-pyrazol-4-yl)-1H-indazole-3-carboxamide]
29 | 1 to 100 nM | CCCNCc1cccc(Cn2cc(NC(=O)c3n[nH]c4ccccc34)cn2)c1 [Example 97, N-(1-(3-((propylamino)methyl)benzyl)-1H-pyrazol-4-yl)-1H-indazole-3-carboxamide]
30 | 1 to 100 nM | O=C(Nc1cnn(Cc2cccc(CNC3CC3)c2)c1)c1n[nH]c2ccccc12 [Example 98, N-(1-(3-((cyclopropylamino)methyl)benzyl)-1H-pyrazol-4-yl)-1H-indazole-3-carboxamide]
31 | 1 to 100 nM | CCNCc1cccc(Cn2cc(NC(=O)c3n[nH]c4ccccc34)cn2)c1 [Example 99, N-(1-(3-((ethylamino)methyl)benzyl)-1H-pyrazol-4-yl)-1H-indazole-3-carboxamide]
32 | 1 to 100 nM | CN(CCC#N)Cc1cccc(Cn2cc(NC(=O)c3n[nH]c4ccccc34)cn2)c1 [Example 100, N-(1-(3-(((2-cyanoethyl)(methyl)amino)methyl)benzyl)-1H-pyrazol-4-yl)-1H-indazole-3-carboxamide]
33 | 1 to 100 nM | CNCc1cccc(Cn2cc(NC(=O)c3n[nH]c4ccccc34)cn2)c1 [Example 101, N-(1-(3-((methylamino)methyl)benzyl)-1H-pyrazol-4-yl)-1H-indazole-3-carboxamide]
34 | 1 to 100 nM | CN(C)CCNCc1cccc(Cn2cc(NC(=O)c3n[nH]c4ccccc34)cn2)c1 [Example 102, N-(1-(3-((2-(dimethylamino)ethylamino)methyl)benzyl)-1H-pyrazol-4-yl)-1H-indazole-3-carboxamide]
35 | 1 to 100 nM | O=C(Nc1cnn(Cc2ccc(CN3CCC3)cc2)c1)c1n[nH]c2ccccc12 [Example 103, N-(1-(4-(azetidin-1-ylmethyl)benzyl)-1H-pyrazol-4-yl)-1H-indazole-3-carboxamide]

Same assay, conditions: Table 3, specific values for certain examples

Row | Ki | Structure (SMILES)
36 | 428 nM | O=C(Nc1cnn(CCN2CCCC(O)C2)c1)c1n[nH]c2ccccc12 (centres unmarked) [Example 75, N-(1-(2-(3-Hydroxypiperidin-1-yl)ethyl)-1H-pyrazol-4-yl)-1H-indazole-3-carboxamide]
37 | 307 nM | CC(C)(c1cccc(C#N)c1)n1cc(NC(=O)c2n[nH]c3ccccc23)cn1 [Example 77, N-(1-(2-(3-Cyanophenyl)propan-2-yl)-1H-pyrazol-4-yl)-1H-indazole-3-carboxamide]
38 | 38.7 nM | O=C(Nc1cnn(Cc2cccc(CNCCO)c2)c1)c1n[nH]c2ccccc12 [Example 96, N-(1-(3-((2-hydroxyethylamino)methyl)benzyl)-1H-pyrazol-4-yl)-1H-indazole-3-carboxamide]

Reference: patent US20140309210A1, “INDAZOLE COMPOUNDS, COMPOSITIONS AND METHODS OF USE THEREOF” (Genentech, Inc., priority 2011, published 2014)
